From publication PMC3609652 (The Biochemical journal, 2013) come the findings set out here.

Experiment [1] addresses IgE^DNP (monoclonal anti-DNP IgE). The experiment can be described thus: tryptophan fluorescence quenching titration with monovalent hapten. Type of experiment: binding.
Experiment [2] deals with IgE^dansyl (monoclonal anti-dansyl IgE, clone 27–74). The experiment is described as above. The class given is binding.

For orientation: Kd means the equilibrium constant for the complex coming apart. A high value points to weaker binding. As for DNP, in experiment [1], the Kd is 22 ± 2 nM.
In experiment [2], dansyl gave a Kd of 54 ± 4 nM.
